Source: patent US20050026812A1, “Conjugated nitro alkene anticancer agents based on isoprenoid metabolism” (Arizona Disease Control Research Commission, priority 2003, published 2005)
Read-outs that look alike come from different tables or passages of the source.

What was measured:
Colorectal (Colo-205) = test: Cancer cell growth inhibition in culture, Colorectal (Colo-205); type: cell-based, human; details: 50% growth inhibition
Excerpt: (§1) Cancer cell growth inhibition.

[1] = system: Acute myeloid leukemia (HL-60); test: Cancer cell growth inhibition in culture, Acute myeloid leukemia (HL-60); type: cell-based, human; details: 50% growth inhibition
Excerpt: as §1

Urinary bladder (T-24) = test: Cancer cell growth inhibition in culture, Urinary bladder (T-24); type: cell-based, human; details: 50% growth inhibition
Excerpt: as §1

Fibrosarcoma (HT-1080) = test: Cancer cell growth inhibition in culture, Fibrosarcoma (HT-1080); type: cell-based, human; details: 50% growth inhibition
Excerpt: as §1

Colon (HT-29) = test: Cancer cell growth inhibition in culture, Colon (HT-29); type: cell-based, human; details: 50% growth inhibition
Excerpt: as §1

[2] = target: T1, human recombinant protein farnesyltransferase (FTase) (Homo sapiens, UniProt P49354+P49356); test: FTase fluorescence assay after pre-incubation with inhibitor; type: biochemical; details: 30-minute treatment in vitro, 30° C.
T1 construct: gift from Professor Patrick Casey, Duke University
Method: Preparation of Ds-GCVLS—Ds-GCVLS was prepared by a method analogous to a published procedure. Synthesis was performed by use of a Millipore 9050 Plus PepSynthesizer that employed standard Fmoc solid phase peptide synthesis methodology. PS-PEG resin and Fmoc protected amino acids were obtained from Millipore. The N-dansylglycine was from Sigma Chemical Co. Peptide purification was performed by RP-HPLC on an Alltech Macrosphere RP300 C8 column. Elution was accomplished with a linear gradient from aqueous 10 mM trifluoroacetic acid to 10 mM trifluoroacetic acid in acetonitrile. Lyophilization yielded a pale yellow solid. […] Concentrations of Ds-GCVLS were determined by use of the extinction coefficient of the dansyl group at 340 nm (ε=4250 M-1 cm-1). […]
FTase assay—The fluoresence assay conditions were adapted from a published method. […] Enzyme activity (approximately 60 nM FTase) was monitored at saturating substrate concentrations (10 μM farnesyl diphosphate, ammonium salt, prepared by successive dilutions of a commercial 2.3 mM solution in methanol:10 mM aqueous NH4OH (7:3) into assay buffer, and 1.0 FM Ds-GCVLS) by measurement of the increase in fluorescence emission observed at λ=505 nm as FTase farnesylated Ds-GCVLS for a period of 10 min. […] All fluorescence assays were conducted in a 4 mm×4 mm quartz cuvette with excitation at 340 nm. […]

Prostate (PC-3) = test: Cancer cell growth inhibition in culture, Prostate (PC-3); type: cell-based; details: Homo sapiens, 50% growth inhibition
Excerpt: as §1

NSC Lung (H-460) = test: Cancer cell growth inhibition in culture, NSC Lung (H-460); type: cell-based; details: Homo sapiens, NCI-H460, 50% growth inhibition
Excerpt: as §1

Colon (Caco-2) = test: Cancer cell growth inhibition in culture, Colon (Caco-2); type: cell-based, human; details: 50% growth inhibition
Excerpt: as §1

Lung (NCI-H460) = test: Cancer cell growth inhibition in culture, Lung (NCI-H460); type: cell-based; details: Homo sapiens
Excerpt: (§2) Compound RG-14 was also effective at inhibiting the growth of human cancer cells in culture. The GI50 values of this compound against specified human cancer cells and mouse leukemia cells grown in culture are shown in Table 2.
as §1

Prostate (DU-145) = test: Cancer cell growth inhibition in culture, Prostate (DU-145); type: cell-based; details: Homo sapiens
Excerpt: as §2, §1

Pancreatic (BXPC-3) = test: Cancer cell growth inhibition in culture, Pancreatic (BXPC-3); type: cell-based; details: Homo sapiens
Excerpt: as §2, §1

Breast (MCF-7) = test: Cancer cell growth inhibition in culture, Breast (MCF-7); type: cell-based; details: Homo sapiens, MCF7
Excerpt: as §2, §1

[3] = system: Central nervous system (SF268); test: Cancer cell growth inhibition in culture, Central nervous system (SF268); type: cell-based; details: Homo sapiens, SF-268
Excerpt: as §2, §1

Colon (KM20L2) = test: Cancer cell growth inhibition in culture, Colon (KM20L2); type: cell-based; details: Homo sapiens, KM-20L2
Excerpt: as §2, §1

Mouse P388 leukemia = test: Cancer cell growth inhibition in culture, Mouse P388 leukemia; type: cell-based; details: read-out: ED50 (the source's name)
Excerpt: as §2, §1

[4] = system: human cancer cells and mouse leukemia cells; test: Cancer cell growth inhibition in culture, panel of Table 2; type: cell-based; details: cell lines of Table 2
Excerpt: as §2, §1

| GI50 (Colorectal (Colo-205)) | GI50 [1] | GI50 (Urinary bladder (T-24)) | GI50 (Fibrosarcoma (HT-1080)) | GI50 (Colon (HT-29)) | decrease of FTase activity ([2]; 5 μM) | inhibition at 50 µM ([2]; 50 μM) | GI50 (Prostate (PC-3)) | GI50 (NSC Lung (H-460)) | GI50 (Colon (Caco-2)) | GI50 (Lung (NCI-H460)) | GI50 (Prostate (DU-145)) | GI50 (Pancreatic (BXPC-3)) | GI50 (Breast (MCF-7)) | GI50 [3] | GI50 (Colon (KM20L2)) | EC50 (Mouse P388 leukemia) | GI50 ([1]; Homo sapiens, read-out: GI50) | GI50 (Colon (Caco-2); Homo sapiens, read-out: GI50) | SMILES | anticancer cell growth activity [4] |
| --- | --- | --- | --- | --- | --- | --- | --- | --- | --- | --- | --- | --- | --- | --- | --- | --- | --- | --- | --- | --- |
| 10^−4 to 10^−5 molar | 10^−6 to 10^−7 molar | 10^−4 to 10^−5 molar | 10^−6 to 10^−7 molar | 10^−4 to 10^−5 molar | 35% | 83% | 1.5 µM | 11 µM | 10^−4 to 10^−5 molar | – | – | – | – | – | – | – | – | – | CC(C)=CCC/C(C)=C/CCC(C)C/C=C(\C)[N+](=O)[O-] (racemic) [RG-4, 5,9,13-trimethyl-2-nitrotetradeca-2,8,12-triene] | – |
| – | – | – | – | – | – | – | – | – | – | 72 µM | 72 µM | 62 µM | 39 µM | 73 µM | 77 µM | 26 µM | – | – | CC(C)=CCCC(C)CC=C(C)[N+](=O)[O-] (racemic) [RG-14, 5,9-dimethyl-2-nitrodeca-2,8-diene] | – |
| 10^−4 to 10^−5 molar | – | 10^−4 to 10^−5 molar | 10^−4 to 10^−5 molar | 10^−4 to 10^−5 molar | – | – | 44 µM | 12 µM | – | – | – | – | – | – | – | – | > 100 µM | > 100 µM | CC(C)=CCCC(C)C/C=C/[N+](=O)[O-] (stereo not drawn) [RG-7, 4,8-dimethyl-1-nitronona-1,7-diene] | – |
| – | – | – | – | – | – | – | – | – | – | > 47 µM | > 47 µM | > 47 µM | > 47 µM | > 47 µM | > 47 µM | > 126 µM | – | – | CC(C)=CCCC(C)CCC(C)[N+](=O)[O-] (stereo not drawn) [SRG-8, reference compound] | did not show detectable anticancer cell growth activity |
